From publication PMC7321218, “Synthetic (E)-3-Phenyl-5-(phenylamino)-2-styryl-1,3,4-thiadiazol-3-ium Chloride Derivatives as Promising Chemotherapy Agents on Cell Lines Infected with HTLV-1” (Molecules, 2020)
Entries after “also recorded” stand apart in the source; their conditions may differ.

How the values were obtained:
[1] = molecular target: T1, human serum albumin (HSA) (Homo sapiens, UniProt P02768); assay: Circular dichroism of HSA (secondary structure); type: binding; details: CD, 310 K, 1.32 × 10^−5 M compound; for α-helix % of HSA at 222 nm: HSA alone 80.1%; for α-helix % of HSA at 208 nm: HSA alone 86.7%
T1 construct: three analogous domains (I, II, and III) having amino acid residues of 1–195, 196–383, and 384–585
T1 sequence (P02768 25-609): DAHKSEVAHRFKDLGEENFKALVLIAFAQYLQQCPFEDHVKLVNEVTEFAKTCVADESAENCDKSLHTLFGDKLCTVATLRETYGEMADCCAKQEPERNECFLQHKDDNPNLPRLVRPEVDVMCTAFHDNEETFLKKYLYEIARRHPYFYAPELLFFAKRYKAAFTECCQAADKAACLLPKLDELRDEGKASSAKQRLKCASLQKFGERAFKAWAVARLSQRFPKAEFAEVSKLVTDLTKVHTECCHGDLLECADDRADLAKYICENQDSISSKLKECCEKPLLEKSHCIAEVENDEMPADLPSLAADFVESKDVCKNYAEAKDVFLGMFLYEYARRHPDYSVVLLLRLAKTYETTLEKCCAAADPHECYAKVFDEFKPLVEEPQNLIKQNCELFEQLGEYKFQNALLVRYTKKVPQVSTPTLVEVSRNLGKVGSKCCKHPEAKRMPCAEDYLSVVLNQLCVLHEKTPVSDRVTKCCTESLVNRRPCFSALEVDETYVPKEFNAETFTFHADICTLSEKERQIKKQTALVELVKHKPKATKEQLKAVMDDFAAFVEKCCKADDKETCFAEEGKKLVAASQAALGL
Experimental: The CD spectra were recorded in the 200–250 nm range at 310 K for free serum albumin (1.00 × 10^−6 M) and for HSA with the higher concentration of each mesoionic used in the steady-state fluorescence studies (1.32 × 10^−5 M). Each spectrum was taken on the average of three scans. The obtained data were further converted into mean residue ellipticity (MRE) according to Equation (6):(6) MRE=θ/(10.n.l.Cp) where θ is the observed ellipticity (mdeg); n is the number of amino acid residues (585 to HSA), l is the length of the optical cuvette (1.0 cm), and Cp is the molar concentration of HSA (1.00 × 10^−6 M). The 5a–d induced helical content perturbation at 208 and 222 nm were calculated using Equation (7):(7) (A) α−helix%(−MRE208−4000)/(33000−4000)×100(B) α−helix%(−MRE222−2340)/(30300)×100 where MRE208 and MRE222 are the significant molar residual ellipticities (deg.cm^2/dmol) at 208 nm and 222 nm, respectively.

[2] = test system: Jurkat cells; assay: MTT cell viability assay, Jurkat cells; type: cell-based; details: Homo sapiens, 72 h incubation
Experimental: (§1) The 1 × 10^5 cells/mL were incubated with or without compounds 5a, 5b, 5c, 5d or DMSO (Sigma-Aldrich/Merck, St. Louis, MO, USA) at 37 °C in humidified atmosphere with a 5% CO2. After 72 h, the cellular viability was assessed using 5 mg/mL of 3-(4,5-dimethylthiazol-2-yl)-2,5-diphenyltetrazolium bromide (MTT, Sigma-Aldrich/Merck). Cells were incubated for 3 h, centrifuged, and formazan crystal was dissolved with DMSO. Plates were read on a Paradigma® spectrofluorometer (Molecular Devices, San Jose, CA, USA) at a 490 nm wavelength. Cell death was also evaluated using Propidium Iodide (Biolegend) exclusion after a 24 h culture under the same conditions described above. The fluorescence was examined by FACSCalibus flow cytometry (BD) and 10,000 events were acquired for the experimental data. Analysis was accomplished using Summit V4.0 or FlowJo software (Becton, Dickingson and Company, Santa Barbara, CA, USA).
(§2) Statistical analysis was performed by one-way analysis of variance (ANOVA) and means were compared using a Tukey post-test. The IC50 values were obtained using nonlinear regression. Data were analyzed using GraphPad Prism-5 software (GraphPad software, San Diego, CA, USA), and p ≤ 0.05 was considered statistically significant.

[3] = molecular target: T1, human serum albumin (HSA); assay: Zeta potential of HSA (surface perturbation); type: binding; details: for ζ (zeta potential of HSA): HSA with 1.32 × 10^−5 M compound, HSA alone −9.15 ± 1.79; for Conductance: ZP measurement, HSA with compound
Experimental: All zeta potential (ZP) measurements were performed with 10 runs at 298 K and results were reported in terms of ZP ± SD. The ZP was measured for the HSA solution (1.0 × 10^−5 M in PBS solution) without and in the presence of the mesoionic compounds at the maximum concentration used in the steady-state fluorescence experiments (1.32 × 10^−5 M) at room temperature (ca. 298 K).

[4] = molecular target: T1, human serum albumin (HSA); assay: Steady-state fluorescence quenching of HSA; type: binding; details: for Kd: Ka (modified Stern–Volmer binding constant); for ΔS°: van't Hoff, 296–310 K
Experimental: The steady-state fluorescence spectra were measured in the 290–450 nm range, at 296, 303, and 310 K, with the excitation wavelength at λ = 295 nm. To a 3.0 mL solution containing an appropriate concentration of HSA (1.00 × 10^−5 M), successive aliquots from a stock solution of each mesoionic under study (1.00 × 10^−3 M in DMSO) were added, with final concentrations of 0.17, 0.33, 0.50, 0.66, 0.83, 0.99, 1.15, and 1.32 × 10^−5 M. The addition was done manually by using a micro syringe. The inner filter correction for the observed steady-state fluorescence of HSA:mesoionic compounds was done in order to compensate for the absorption value of 5a–d at the excitation and emission wavelengths (295 and 340 nm, respectively) when applying Equation (1):(1) Fcor=Fobs10^[Aexc+Aem/2] where Fcor and Fobs are the corrected and observed steady-state fluorescence intensity values, respectively, while Aex and Aem represent absorbance values for each ligand at the excitation and emission wavelengths (λ = 295 and 340 nm, respectively).
The binding properties of each ligand toward HSA—Stern–Volmer quenching constant (KSV), bimolecular quenching rate constant (kq), modified Stern–Volmer binding constant (Ka), enthalpy change (ΔH°), entropy change (ΔS°), and Gibbs’ free energy change (ΔG°)—were calculated from the steady-state fluorescence quenching data according to Equations (2)–(5):(2) F0/F=1+kqτ0[Q]=1+KSV[Q] (3) F0/F0−F=1/f[Q]Ka+1/f (4) lnKa=−ΔH^0/RT+ΔS^0/R (5) ΔG^0=ΔH^0−TΔS^0 where F0 and F are the steady-state fluorescence intensities of HSA in the absence and presence of mesoionics, respectively. [Q] and τ0 are the ligand concentration and fluorescence lifetime, respectively, of the fluorophore in the absence of quencher (5.54 × 10^−9 s—experimental data, see Section 2.3.1). T, ƒ, and R are the temperature (296, 303, and 310 K), fraction of the initial fluorescence intensity that corresponds to fluorophore that is accessible to the quencher (f ≈ 1.0), and gas constant (8.3145 J/mol.K), respectively.

[5] = test system: MT2 cells (HTLV-1-infected cell line); assay: MTT cell viability assay, MT2 cells; type: cell-based; details: Homo sapiens, 72 h incubation
Experimental: as §1, §2

[6] = molecular target: T1, human serum albumin (HSA); assay: Time-resolved fluorescence decay of HSA; type: binding; details: HSA 1.00 × 10^−5 M with 1.32 × 10^−5 M compound, ca 298 K
Experimental: The time-resolved fluorescence decay of a 3.0 mL solution of HSA (1.00 × 10^−5 M, in phosphate buffer solution-PBS) was measured in the absence and presence of the maximum concentration of each mesoionic used in the steady-state fluorescence studies (1.32 × 10^−5 M) at room temperature (ca 298 K).

[7] = test system: C91/PL cells (HTLV-1-infected); assay: MTT cell viability assay, C91/PL cells; type: cell-based; details: 72 h incubation
Experimental: as §1, §2

[8] = test system: Jurkat cells; assay: Necrosis by propidium iodide labeling (flow cytometry), Jurkat cells; type: cell-based, human; details: 25 µM, 24 h, PI labeling
Experimental: as §1

[9] = test system: C91/PL cells; assay: Necrosis by propidium iodide labeling (flow cytometry), C91/PL cells; type: cell-based; details: 25 µM, 24 h, PI labeling
Experimental: as §1

[10] = test system: salmon DNA; assay: DNA interaction assay (fluorescence emission); type: binding; details: 25 µM compound, DNA 2, 10 and 100 ng/mL
Experimental: Fluorescence emission spectroscopic titration experiments of DNA were conducted in the absence and presence of a constant concentration of the mesoionic compounds 5a–d. […] After that, the fluorescence emission was recorded after 1 h of DNA incubation with or without compounds 5a–d (25 µM) or DMSO, over a wavelength range of 300 to 600 nm in a Tris-acetate-EDTA buffer (Promega) at room temperature. The slit widths for excitation and emission were set to 5.0 nm. The fluorescence was examined using a F4500 fluorometer (Hitachi, New Jersey, NJ, USA).

[11] = test system: MT2 cells; assay: Necrosis by propidium iodide labeling (flow cytometry), MT2 cells; type: cell-based; details: 25 µM, 24 h, PI labeling
Experimental: as §1

Structure (SMILES)	α-helix % of HSA at 222 nm [1] [%]	α-helix % of HSA at 208 nm [1] [%]	IC50 [2] [µM]	ζ (zeta potential of HSA) [3] [mV]	Conductance [3]	KSV (Stern–Volmer quenching constant) ([4]; 296 K)	kq (bimolecular quenching rate constant) ([4]; 296 K) [M⁻¹ s⁻¹]	ΔG° ([4]; 296 K) [kJ/mol]	KSV (Stern–Volmer quenching constant) ([4]; 303 K)	kq (bimolecular quenching rate constant) ([4]; 303 K) [M⁻¹ s⁻¹]	ΔG° ([4]; 303 K) [kJ/mol]	KSV (Stern–Volmer quenching constant) ([4]; 310 K)	kq (bimolecular quenching rate constant) ([4]; 310 K) [M⁻¹ s⁻¹]	ΔG° ([4]; 310 K) [kJ/mol]	Kd ([4]; 296 K) [µM]	Kd ([4]; 303 K) [µM]	Kd ([4]; 310 K) [µM]	ΔS° [4]	IC50 [5] [µM]	Relative % of τ1 [6] [%]	also measured
Cc1ccc(Nc2n[n+](-c3ccccc3)c(/C=C/c3ccccc3)s2)cc1.[Cl-] [5a, (E)-3-Phenyl-5-(4′-methylphenylamino)-2-styryl-1,3,4-thiadiazol-3-ium chloride]	78.5	84.0	2.15	−8.62 ± 1.40	29,615 µs	1.19 ± 0.03 × 10^5 M^−1	2.15e+13	-27.7	1.20 ± 0.03 × 10^5 M^−1	2.16e+13	-28.3	1.21 ± 0.03 × 10^5 M^−1	2.18e+13	-28.9	13	13.3	13.7	8.46 ± 0.05 × 10^−2 kJ.mol^−1K^−1	1.51	26.4	Relative % of τ2 [6]: 73.6%; τ1 (HSA fluorescence lifetime) [6]: 1.61 ± 0.13 ns; τ2 (HSA fluorescence lifetime) [6]: 5.38 ± 0.13 ns; IC50 [7]: 2.82 µM
COc1ccc(Nc2n[n+](-c3ccccc3)c(/C=C/c3ccccc3)s2)cc1.[Cl-] [5b, (E)-3-Phenyl-5-(4′-methoxyphenylamino)-2-styryl-1,3,4-thiadiazol-3-ium chloride]	77.3	82.4	1.74	−8.55 ± 1.46	29,642 µs	1.10 ± 0.02 × 10^5 M^−1	1.99e+13	-28.0	1.14 ± 0.03 × 10^5 M^−1	2.06e+13	-28.6	1.15 ± 0.03 × 10^5 M^−1	2.07e+13	-29.2	11.7	11.8	12.1	8.81 ± 0.06 × 10^−2 kJ.mol^−1K^−1	5.09	23.9	necrotic cells [8]: 75.37 ± 3.63%; Relative % of τ2 [6]: 76.1%; τ1 (HSA fluorescence lifetime) [6]: 1.66 ± 0.12 ns; τ2 (HSA fluorescence lifetime) [6]: 5.25 ± 0.11 ns; necrotic cells [9]: 33.75 ± 1.65%; IC50 [7]: 4.5 µM; interaction with DNA strands [10]: can interact with the DNA strands; also recorded: could interact with DNA strands; necrotic cells [11]: 35.34 ± 7.80%
Clc1ccc(Nc2n[n+](-c3ccccc3)c(/C=C/c3ccccc3)s2)cc1.[Cl-] [5c, (E)-3-Phenyl-5-(4′-chlorophenylamino)-2-styryl-1,3,4-thiadiazol-3-ium chloride]	78.8	83.8	5.6	−8.77 ± 1.52	29,622 µs	1.30 ± 0.03 × 10^5 M^−1	2.35e+13	-28.1	1.36 ± 0.04 × 10^5 M^−1	2.45e+13	-28.9	1.40 ± 0.03 × 10^5 M^−1	2.53e+13	-29.7	11.7	11	10.4	11.6 ± 0.1 × 10^−2 kJ.mol^−1K^−1	6.15	33.0	Relative % of τ2 [6]: 67.0%; τ1 (HSA fluorescence lifetime) [6]: 1.68 ± 0.11 ns; τ2 (HSA fluorescence lifetime) [6]: 5.66 ± 0.16 ns; IC50 [7]: 4.5 µM
Brc1ccc(Nc2n[n+](-c3ccccc3)c(/C=C/c3ccccc3)s2)cc1.[Cl-] [5d, (E)-3-Phenyl-5-(4′-bromophenylamino)-2-styryl-1,3,4-thiadiazol-3-ium chloride]	77.7	82.0	2.27	−8.69 ± 1.50	29,638 µs	1.45 ± 0.02 × 10^5 M^−1	2.61e+13	-27.9	1.54 ± 0.03 × 10^5 M^−1	2.79e+13	-28.7	1.60 ± 0.03 × 10^5 M^−1	2.89e+13	-29.4	11.5	11.1	10.8	10.6 ± 0.1 × 10^−2 kJ.mol^−1K^−1	7.7	29.8	Relative % of τ2 [6]: 70.2%; τ1 (HSA fluorescence lifetime) [6]: 1.65 ± 0.10 ns; τ2 (HSA fluorescence lifetime) [6]: 5.37 ± 0.13 ns; IC50 [7]: 5.25 µM
